Data on three molecules can be found in publication PMC10747034 (Tropical Medicine and Infectious Disease, 2023).

For data set [1], the system named is Toxoplasma gondii tachyzoites of RH strain. The data set can be described thus: Plaque assay (7 days) in NHDF monolayers infected with T. gondii. The data set is classed as cell-based. To be noted: 7 days of treatment, two independent experiments. On the procedure:
After NHDF reached confluency, each well was replaced with fresh medium containing one compound at a concentration of 1 µM, and then infected with 1000 newly egressed tachyzoites from RH strain [29]. Screening at 1 μM is recommended by MMV. As a control, infected cells were incubated with complete medium and 0.01% DMSO [29]. The plates were then kept in an incubator at 37 °C in a humid atmosphere with 5% CO2 for seven days. After this time, cultures were fixed with 70% ethanol and stained with crystal violet to observe the plates.
For that, 12-well plates containing a monolayer of NHDF were infected with 600 tachyzoites of the RH strain of T. gondii and treated with different concentrations for seven days. IC50s of compounds were calculated using GraphPad Prism 8.0 software.
Data were analyzed using GraphPad Prim 8.0 software. IC50 and CC50 calculations were performed by fitting the values of proliferation/viability in percentage to a non-linear curve followed by dose–response inhibition analysis through log(inhibitor) vs. normalized response.

The subject of data set [2] is NHDF cells. The data set can be described thus: Cytotoxicity assay (MTS, 7 days). The data set is classed as cell-based, Human. As for the experimental part:
(§1) For that, 96-well tissue plates containing NHDF cells were treated with different concentrations of compounds up to 10 µM for seven days. Control cells were incubated with 0.5% DMSO. At the end of the treatment, cell viability was then analyzed through the colorimetric method of MTS (Promega, Madison, WI, USA). […] Data were analyzed using GraphPad Prim 8.0 software. IC50 and CC50 calculations were performed by fitting the values of proliferation/viability in percentage to a non-linear curve followed by dose–response inhibition analysis through log(inhibitor) vs. normalized response.

Data set [3] has as its system Toxoplasma gondii tachyzoites of RH strain. Nature of the data set: Forty-eight-hour antiproliferative assay. Type of data set: cell-based. To be noted: 1 µM, 48 h; for inhibition at 1 µM: Toxoplasma gondii, read-out: Inhibition of parasite proliferation. As for the experimental part:
NDHF cell monolayers were plated in a 24-well tissue plate containing coverslips, and after confluency was reached, cells were infected with a ratio of 5:1 parasite/host cells with freshly egressed RH strain tachyzoites for two hours. Then, cells were washed twice with phosphate-buffered saline, pH 7.4 (PBS), to remove non-invaded parasites and incubated with a complete medium for two hours more. After this time, infected cells were treated for 48 h with different concentrations of selected compounds, based on the IC50 obtained through plaque assay. At the end of the experiment, the cells were washed with PBS, stained with Bouin for 10 min, washed with 70% alcohol, and stained with solutions 2 and 3 of the Fast Panoptic kit for 60 and 10 s, respectively. Two hundred infected cells were quantified per slide using the 100× objective of a Leica DM500 optical microscope, stratifying the number of infected and non-infected cells and the amount of tachyzoite in each infected cell. The proliferation index is the ratio of the product of the total amount of tachyzoites and the percentage of infected cells by the total number of cells.

For data set [4], the system named is T. gondii tachyzoites. The data set can be described thus: Ultrastructural analysis through transmission electron microscopy. Type of data set: cell-based, Toxoplasma gondii. To be noted: 1 µM, 48 h. On the procedure:
T-25 cm^2 flasks for cell culture with confluent monolayers of NHDF were infected with freshly egressed tachyzoite in a ratio of 10:1 parasite per cell for 2 h of interaction. The flasks were washed and fresh RPMI was added for another two hours. After this, the compounds were added and infected cells were treated for 48 h. The sample fixation and processing for microscopy were performed as previously described.

The test system of data set [5] is Madurella mycetomatis. Set-up: method as in PMID 35120131. The conditions noted are these: read-out: IC50 against Madurella mycetomatis; cited from earlier work.
A short description of data set [6]: Cytotoxicity assay (MTS, 7 days). Type of data set: cell-based, Human. The conditions noted are these: human, NHDF cells, MTS, read-out: Cytotoxicity against NHDF (7 Days) CC50. On the procedure: as §1
Data set [7] concerns T. gondii Me49 strain. The conditions noted are these: read-out: IC50 against T. gondii Me49 strain; cited from earlier work.
In data set [8] the test system is T. gondii RH strain. To be noted: read-out: IC50 against T. gondii RH strain; cited from earlier work.
In data set [9] the test system is Balamuthia Mandrillaris. Set-up: method as in PMID 32560115. To be noted: read-out: IC50 against Balamuthia Mandrillaris; cited from earlier work.

Read-outs that look alike come from different tables or passages of the source.

The IC50 is the concentration needed to halve the response being measured. As a reminder, the CC50 is the concentration giving 50% cytotoxicity. Consider `Clc1cc(Cl)c2c(c1)CCc1ccccc1C2n1ccnc1` (centres unmarked) [Eberconazole], for which the results for the IC50 in data set [1] and in [5] were 724 ± 12.6 nM and 0.72 µM, respectively. Also, in [2] (MTS, ND = 100% viability up to 10 µM, read-out: Cytotoxicity against NHDF (7 Days) CC50), the CC50 is greater than 10 µM. In addition, in data set [3], the “Inhibition of parasite proliferation” value is “more than 60%”. For the same molecule, the “Ultrastructural alterations on tachyzoites (TEM)” value (shortened to “Ultrastructural alterations”) in data set [4] is “induced mitochondrial swelling (white arrowhead) and extensive vacuolization”.

In the case of `OCCC#Cc1nc(-c2ccc(F)cc2)c(-c2ccncc2)n1CCCc1ccccc1` [RWJ-67657], the IC50 in data set [1] (Toxoplasma gondii, NHDF, 168 h) was 412 ± 21.7 nM; in data set [7], 0.8 µM; in data set [8], 5 µM. The CC50 at 7 days in [6] (concentrations up to 10 µM, two independent experiments) turned out to be 12.6 µM. The “SI (Selectivity Index, CC50 NHDF cells/IC50 T. gondii)” value in data set [2] is given as 31. In addition, the “Inhibition of parasite proliferation” value in data set [3] is recorded as 59.5%. Further, in data set [3], the inhibition at 1 µM was greater than 60%. The “Ultrastructural alterations” value in data set [4] was “induced an extensive vacuolization (asterisks) in T. gondii and myelin-like bodies”.

On to `CN1CCN(Cc2ccc(-c3cnc4[nH]cc(-c5ccc6[nH]ccc6c5)c4c3)cc2)CC1` [URMC-099-C], for which the CC50 at 7 days in [6] (ND = 100% viability up to 10 µM) was greater than 10 µM. Further, the inhibition at 1 µM in data set [3] was greater than 60%. The “Ultrastructural alterations” value in data set [4] is “induced an extensive vacuolization (asterisks) in T. gondii and myelin-like bodies”. Besides, the IC50 in [9] is 5.35 µM.
